Test [1] concerns Mmp-2, Mmp-9, Mmp-13. The test can be described thus: Mmp expression in Tg-MYOCY437H angle ring tissue (Example 19). The test is classed as in vivo, mouse. Conditions: 5 days, vs BSA treated eyes. How it is done:
Eyes were flash frozen in liquid nitrogen after outflow facility determination and subsequently dissected on ice to obtain the angle ring tissues containing the TM, as previously described (Kumar, Shah et al. 2013). Dissected TM tissues were immersed in RNAlater solution (Invitrogen, Waltham, Mass., USA) and then snap-frozen and stored at −80° C. until RNA extraction. Tissue collected was pooled (four eyes) and homogenized in TRIzol reagent for RNA isolation, per manufacturer's instructions (Life Technologies, Carlsbad, Calif., USA). RNA concentration was determined with a Nanodrop ND-1000 Spectrophotometer (Thermo Scientific, Wilmington, Del., USA). cDNA was synthesized by using High-Capacity cDNA Reverse Transcription Kit (Applied Biosystems, Waltham, Mass., USA) according to manufacturer's protocol. Quantitative real-time PCR (qRT-PCR) was performed by using Green-2-Go qPCR Mastermix-ROX (Bio Basic, Amherst, N.Y., USA) on a QuantStudio 6 Flex thermal cycler (Applied Biosystems, Carlsbad, Calif., USA). mRNA expression of Plat, Plau, Pai-1, Mmp-2, Mmp-9, and Mmp-13 in angle ring tissues was determined. Primers were designed by using Primer-BLAST (https://www.ncbi.nlm.nih.gov/tools/primer-blast/index.cgi?LINK_LOC=BlastHome; in the public domain); primer sequences are listed in Table 2. Primer specificity was confirmed by agarose gel electrophoresis and multiple-sized amplification products were absent on inspection of melting curves. Target mRNA expression values were normalized to the expression levels of Rps11 (ribosomal protein S11). The relative fold change was calculated by using the ΔΔCt method (Hu, Wang et al. 2015). Outliers identified via the Thompson Tau test were removed from analysis.

The test system of test [2] is MMP-2, MMP-9, MMP-13. The test can be described thus: MMP expression in PA treated HTM cells (Examples 17, 18). In kind it is cell-based.
The test system of test [3] is HTM cells. Nature of the test: Simulated outflow facility of HTM cells in artificial conventional outflow system (ACOS) (Examples 17, 18). The test is classed as cell-based. As to conditions: PA treatment. As for the experimental part: HTM cells were treated with 300 nM prednisolone acetate (PA) for 72 h to reduce outflow facility. They were then treated with either tissue plasminogen activator (tPA), non-enzymatically active tPA (NE-tPA) or bovine serum albumin (BSA) and perfused in artificial conventional outflow system (ACOS). Simulated outflow facilities (mean±standard deviation) (μl/min/mmHg/mm^2) was 2.4±0.6×10-1 for PA, 3±1.2×10-1 for PA+BSA, 7±1.2×10-1 for PA+tPA and 5.4±0.9×10-1 for PA+NE-tPA (p<0.0001, ANOVA).
HTM cells were treated with PA+NE-tPA and inhibitors of either LRP1 (RAP) or NMDA receptor (MK-801) and were perfused in ACOS. Simulated outflow facility (meant standard deviation μl/min/mmHg/mm^2) was 5.5±0.7×10-1 for PA+NE-tPA, 2.9±1.3×10-1 for PA+NE-tPA+MK-801, 2.7±1.2×10-1 for PA+NE-tPA+RAP and 3.3±1.3×10-1 for PA+NE-tPA+MK-801+RAP.

Test [4] deals with sheep of the Corriedale breed. The test can be described thus: Steroid-induced IOP elevation in sheep, intravitreal tPA (Examples 3, 4). The test is classed as in vivo. As for the experimental part:
Protocol 1. 8 sheep of the Corriedale breed were treated with prednisolone acetate three times a day in both eyes, leading to elevated IOP. After one week, the animals received intravitreal injections of human recombinant tPA (100, 200, 500 and 1000 μg, two animals each) dissolved in balanced salt solution (BSS) in one eye. IOP was monitored for 19 more days while the animals continued to receive treatment with prednisolone. Periodic slit lamp examination was also performed.
Protocol 2. In a second set of experiments, arginine was added to the BSS vehicle administered to the left eye to control for the relatively high concentration of the amino acid in the commercially available tPA lyophilisate. In these experiments all right eyes received 0.1 mg tPA, which concomitantly delivered 4.23 mg of arginine into the vitreous, and the left eye received this same amount of arginine, absent the tPA. On Day 1, prednisolone treatments were also begun simultaneously on both eyes.
Methods. In this experiment, the inventor sought to detect the effects of tPA treatment on prevention of steroid-induced IOP elevation. In 4 sheep tPA was injected in one eye (100 μg) and they were started on prednisolone acetate three times a day in both eyes. Animals were monitored for 11 days on continuous treatment.

Test [5] has as its system PLAT. The test can be described thus: PLAT mRNA in HTM cells after prednisolone (Example 8). In kind it is cell-based. As to conditions: HTM cells from two donors; as early as 1 hour after prednisolone. The source says:
FIG. 8. Relative fold difference of PLAT mRNA from 18S mRNA amounts in HTM cells treated with prednisolone acetate (PA treated) or vehicle (Control) for […].

Test [6] deals with sheep of the Coriedale breed. The test can be described thus: Steroid-induced IOP elevation in sheep, tPA injected into the anterior chamber (Example 9). Conditions: amount of arginine associated with 0.01 ug tPA, injected alone. In kind it is in vivo. As for the experimental part:
Methods. Lyophilized tPA, obtained as Acetilyse® from Boehringer Ingelheim S. A. (Buenos Aires) containing arginine, was used. Five sheep of the Coriedale breed were selected. Initially all eyes received instillation of 1% prednisolone 3 times/day for 10 days to elevate their IOP from 10 mm Hg to about 23 mm Hg. Then, 0.0001 μg was injected into one of the eyes and its effect was followed for up to 55:00 hrs while the instillation of prednisolone continued in both eyes. The same protocol was implemented for the 0.001 and 0.01 μg amounts (after extended washout) in the contra lateral eyes. Arginine, which is associated with 0.01 ug tPA, was injected alone and had no effect.

Test [7] relates to C57/1B6 mice. The test can be described thus: Outflow facility in TA-treated mice injected intracamerally with AdPLAT (Example 1). The test is classed as in vivo. As for the experimental part:
Methods: Adenoviral vectors carrying cDNA of the sheep PLAT gene and a fluorescent reporter gene (mCherry) (AdPLAT) or with no transgene (AdNull) were created. Transgene expression was driven by the CMV promoter. 3 groups of C57/1B6 mice received either: (1) 20 μl of triamcinolone acetonide (TA) suspension (40 mg/ml) subconjunctivally bilaterally followed immediately by unilateral intracameral injection with 2 μl AdPLAT (3-4×10^12 VG/ml); (2) 20 μl TA subconjunctivally bilaterally followed one week later by unilateral intracameral injection with 2 μl AdPLAT; or (3) 20 μl TA subconjunctivally bilaterally followed immediately by bilateral injection with 2 μl adenovirus AdNull. IOP was measured preterminally. Outflow facility was determined using simultaneous pressure and flow measurements (see FIGS. 2A-2C). After outflow facility measurement, all AdPLAT injected eyes were dissected and viewed under a fluorescent microscope to inspect for mCherry expression in the trabecular meshwork (TM).

Test [8] has as its system C57BL/6J mice. Nature of the test: Outflow facility in TA and adenovirus treated C57BL/6J mouse eyes (Example 12). Conditions: TA exposed eyes vs naïve C57BL/6J. In kind it is in vivo. As for the experimental part:
Steroid, adenoviral and protein injections. Intracameral adenovirus and intravitreal protein injections were performed using a 10 μl Hamilton syringe with 36-gauge stainless steel needles (WPI Inc, Sarasota, Fla., USA) while subconjunctival injections were performed using a 100 μl Hamilton Syringe with 26-gauge needles (Precision Glide, Becton Dickinson & CO, Franklin Lakes, N.J., USA). All injections were performed under isoflurane inhalation anesthesia and topical anesthesia with 0.5% proparacaine. C57BL/6J mice undergoing adenovirus treatment received bilateral injections with 20 μl of triamcinolone acetonide (TA) suspension (40 mg/ml, Kenalog-40; Bristol-Myers Squibb, NY, USA) subconjunctivally immediately prior to the intracameral adenovirus injection. Animals were then divided into three groups (FIG. 10a): […]
Outflow facility determination: Mouse eyes were enucleated immediately after euthanasia. Outflow facility was determined using a constant pressure method, as previously described. […] Flow was constantly measured via a microfluidic flow sensor (0.07-1.5 uL/min, MFS1; Elveflow, Paris, France). […] Any eyes that developed visible leaks during outflow facility determination, or that had pressure-flow correlations with R^2<0.9, were excluded from analysis but were used for RNA quantification.

Setting [9] is: added to PA+NE-tPA, vs PA+NE-tPA treated cells.

For `O=C([O-])CCCc1ccccc1.[Na+]` [PBA, sodium phenylbutarate, reference compound], in test [1], the Mmp-2 expression result was “no significant difference”, the Mmp-9 expression result is reported as “higher” and the Mmp-13 expression entry is “did not show any difference”.
`C[C@]12N[C@H](Cc3ccccc31)c1ccccc12` [MK-801, reference compound]: in test [2] (setting [9]), the MMP-2 expression result is on record as “significantly lower” and the MMP-9 expression entry is recorded as “significantly lower”.
With `CC(=O)OCC(=O)[C@@]1(O)CC[C@H]2[C@@H]3CCC4=CC(=O)C=C[C@]4(C)[C@H]3[C@@H](O)C[C@@]21C` [prednisolone, prednisolone acetate, reference compound], the “reduction in outflow facility compared to baseline” value in test [3] was around 73%. The “MMP-13 mRNA” value in test [2] (PA treated HTM cells) is “below detectable limits”. In addition, the “mean (±SD) IOP” value in test [4] (prednisolone for 10 days, baseline 10.2 (±1.1) mmHg) is recorded as 24.1(±1.6) mmHg. Moreover, in test [5], the PLAT expression entry was “downregulation”.
On to `N=C(N)NCCC[C@H](N)C(=O)O` [arginine, reference compound], for which the “effect of arginine alone on IOP” value in test [6] is “had no effect”. The “effect of arginine alone on steroid-increased IOP” value in test [4] (4.23 mg arginine intravitreal, prednisolone) is given as “does not alter”. Further, in test [4] (eye receiving arginine plus prednisolone (OS)), the “effect of arginine alone on outflow facility” value is recorded as “failed to reduce”.
Take `CC1(C)O[C@@H]2C[C@H]3[C@@H]4CCC5=CC(=O)C=C[C@]5(C)[C@@]4(F)[C@@H](O)C[C@]3(C)[C@]2(C(=O)CO)O1` [TA, triamcinolone acetonide]: the “outflow facility, mean±SD” value is 0.0067±0.0028 μl/min/mmHg in test [7] (TA only eyes, two weeks of TA, n=24) and 0.0060±0.0025 μl/min/mmHg in test [7] (contralateral eyes injected with TA alone, concurrent experiment, n=22). Also, in test [8], the “reduction in outflow facility from baseline” value is around 46%.

These data come from patent publication US20210220450A1, “TREATMENT OF AN IOP CONDITION” (The Research Foundation for The State University of New York, priority 2013, published 2021).
